One block for each compound: values may come before it.
Tests used:
[1] = molecular target: Protein kinase C beta type (Homo sapiens) (UniProt P05771); assay: Inhibition of PKC-beta2 (unknown origin) at 0.078 uM relative to control
[2] = molecular target: Dual specificity tyrosine-phosphorylation-regulated kinase 1A (Homo sapiens) (UniProt Q13627); assay: Inhibition of DYRK1a (unknown origin) at 0.078 uM relative to control
[3] = molecular target: Tyrosine-protein kinase ABL1 (Homo sapiens) (UniProt P00519); assay: Inhibition of ABL (unknown origin) at 0.078 uM relative to control
[4] = molecular target: Serine/threonine-protein kinase MARK1 (Homo sapiens) (UniProt Q9P0L2); assay: Inhibition of MARK1 (unknown origin) at 0.078 uM relative to control
[5] = molecular target: Tyrosine-protein kinase Lyn (Homo sapiens) (UniProt P07948); assay: Inhibition of LYN (unknown origin) at 0.078 uM relative to control
[6] = molecular target: Mitogen-activated protein kinase kinase kinase kinase 4 (Homo sapiens) (UniProt O95819); assay: Inhibition of HGK (unknown origin) at 0.078 uM relative to control
[7] = molecular target: RAC-alpha serine/threonine-protein kinase (Homo sapiens) (UniProt P31749); assay: Inhibition of AKT1 (unknown origin) at 0.078 uM relative to control
[8] = tested on: Tyrosine-protein kinase ABL1 (Homo sapiens), P00519 [E255K]; assay: Inhibition of ABL1 E255K mutant (unknown origin) at 0.49 uM relative to control
[9] = molecular target: Ephrin type-B receptor 3 (Homo sapiens) (UniProt P54753); assay: Inhibition of EPHB3 (unknown origin) at 0.49 uM relative to control
[10] = molecular target: Serine/threonine-protein kinase 4 (Homo sapiens) (UniProt Q13043); assay: Inhibition of MST1 (unknown origin) at 0.49 uM relative to control
[11] = molecular target: Cyclin-dependent kinase 5/CDK5 activator 1 (Homo sapiens) (UniProt Q00535+Q15078); assay: Inhibition of CDK5/p25 (unknown origin) at 0.49 uM relative to control; assay type: protein-complex assay
[12] = molecular target: SRSF protein kinase 2 (Homo sapiens) (UniProt P78362); assay: Inhibition of SRPK2 (unknown origin) at 0.49 uM relative to control
[13] = molecular target: Testis-specific serine/threonine-protein kinase 2 (Homo sapiens) (UniProt Q96PF2); assay: Inhibition of TSSK2 (unknown origin) at 0.49 uM relative to control
[14] = molecular target: ALK tyrosine kinase receptor (Homo sapiens) (UniProt Q9UM73); assay: Inhibition of ALK (unknown origin) at 0.49 uM relative to control
[15] = molecular target: Tyrosine-protein kinase ITK/TSK (Homo sapiens) (UniProt Q08881); assay: Inhibition of ITK (unknown origin) at 0.49 uM relative to control
[16] = molecular target: NT-3 growth factor receptor (Homo sapiens) (UniProt Q16288); assay: Inhibition of TRKC (unknown origin) at 0.49 uM relative to control
[17] = molecular target: Phosphorylase b kinase gamma catalytic chain, skeletal muscle/heart isoform (Homo sapiens) (UniProt Q16816); assay: Inhibition of PhKg1 (unknown origin) at 0.49 uM relative to control
[18] = molecular target: Glycogen synthase kinase-3 alpha (Homo sapiens) (UniProt P49840); assay: Inhibition of GSK3-alpha (unknown origin) at 0.49 uM relative to control
[19] = molecular target: Dual specificity tyrosine-phosphorylation-regulated kinase 2 (Homo sapiens) (UniProt Q92630); assay: Inhibition of DYRK2 (unknown origin) at 0.49 uM relative to control
[20] = molecular target: Platelet-derived growth factor receptor alpha (Homo sapiens) (UniProt P16234); assay: Inhibition of PDGFR alpha (unknown origin) at 0.45 uM relative to control
[21] = tested on: Fibroblast growth factor receptor 2 (Homo sapiens), P21802 [N549H]; assay: Inhibition of FGFR2 N549H mutant (unknown origin) at 0.45 uM
[22] = molecular target: T1, Serine/threonine-protein kinase Sgk1 (Homo sapiens) (UniProt O00141); assay: Inhibition of SGK1 (unknown origin) at 0.45 uM relative to control
T1 sequence (whole entry): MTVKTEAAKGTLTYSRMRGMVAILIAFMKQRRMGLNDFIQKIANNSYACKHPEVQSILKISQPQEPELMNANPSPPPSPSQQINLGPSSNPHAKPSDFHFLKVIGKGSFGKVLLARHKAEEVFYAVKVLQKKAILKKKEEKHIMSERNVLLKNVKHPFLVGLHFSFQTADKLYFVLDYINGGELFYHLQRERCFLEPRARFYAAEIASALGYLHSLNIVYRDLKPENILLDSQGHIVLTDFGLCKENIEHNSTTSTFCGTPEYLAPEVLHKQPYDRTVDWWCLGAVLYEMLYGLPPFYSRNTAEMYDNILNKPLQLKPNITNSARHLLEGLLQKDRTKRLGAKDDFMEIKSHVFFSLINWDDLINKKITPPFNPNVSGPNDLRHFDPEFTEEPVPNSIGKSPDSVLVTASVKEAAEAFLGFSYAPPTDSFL

[23] = molecular target: Vascular endothelial growth factor receptor 2 (Homo sapiens) (UniProt P35968); assay: Inhibition of KDR (unknown origin) at 0.45 uM relative to control
[24] = molecular target: Dual specificity tyrosine-phosphorylation-regulated kinase 3 (Homo sapiens) (UniProt O43781); assay: Inhibition of DYRK3 (unknown origin) at 0.45 uM relative to control
[25] = molecular target: Tyrosine-protein kinase TXK (Homo sapiens) (UniProt P42681); assay: Inhibition of TXK (unknown origin) at 0.45 uM relative to control
[26] = molecular target: Mitogen-activated protein kinase 14 (Homo sapiens) (UniProt Q16539); assay: Inhibition of p38a (unknown origin) at 0.45 uM relative to control
[27] = molecular target: Serine/threonine-protein kinase MARK1 (Homo sapiens) (UniProt Q9P0L2); assay: Inhibition of MARK1 (unknown origin) at 0.45 uM relative to control
[28] = molecular target: Tyrosine-protein kinase JAK2 (Homo sapiens) (UniProt O60674); assay: Inhibition of JAK2 (unknown origin) at 0.45 uM relative to control
[29] = molecular target: Rho-associated protein kinase 2 (Homo sapiens) (UniProt O75116); assay: Inhibition of ROCK2 (unknown origin) at 0.45 uM relative to control
[30] = molecular target: Serine/threonine-protein kinase PAK 5 (Homo sapiens) (UniProt Q9P286); assay: Inhibition of PAK5 (unknown origin) at 0.45 uM relative to control
[31] = molecular target: Ribosomal protein S6 kinase alpha-2 (Homo sapiens) (UniProt Q15349); assay: Inhibition of RSK3 (unknown origin) at 0.45 uM relative to control
[32] = molecular target: Tyrosine-protein kinase Blk (Homo sapiens) (UniProt P51451); assay: Inhibition of BLK (unknown origin) at 0.45 uM relative to control
[33] = molecular target: MAP/microtubule affinity-regulating kinase 3 (Homo sapiens) (UniProt P27448); assay: Inhibition of c-TAK1 (unknown origin) at 0.45 uM relative to control

- inhibition [1]: 8.7%
- inhibition [2]: 9.7%
- inhibition [3]: 34%
- inhibition [4]: 3.3%
- inhibition [5]: -0.3%
- inhibition [6]: 40.7%
- inhibition [7]: -1%
Structure (SMILES): COC(=O)Nc1noc2cc(-c3c(-c4ccccn4)n[nH]c3C)ccc12

- inhibition [8]: 21.3%
- inhibition [9]: 0.7%
- inhibition [10]: 9.3%
- inhibition [11]: 4.3%
- inhibition [12]: -2.3%
- inhibition [13]: 2%
- inhibition [14]: 0.3%
- inhibition [15]: -1%
- inhibition [16]: 6.3%
- inhibition [17]: 2.3%
- inhibition [18]: 2%
- inhibition [19]: 3.3%
Structure (SMILES): Cc1[nH]nc(C2CC2)c1-c1ccc2c(NC(=O)C3CC3)noc2c1

- inhibition [20]: 11.7%
- inhibition [21]: 40%
- inhibition [22]: 2.3%
- inhibition [23]: 35.7%
- inhibition [24]: 2%
- inhibition [25]: -0.7%
- inhibition [26]: 1.7%
- inhibition [27]: 36.7%
- inhibition [28]: 26%
- inhibition [29]: 0.7%
- inhibition [30]: 5.3%
- inhibition [31]: 42.7%
- inhibition [32]: 20%
- inhibition [33]: 15%
Structure (SMILES): Cc1n[nH]c(C)c1-c1ccc2c(NC(=O)c3ccc(N4CCN(C)CC4)cc3)n[nH]c2c1

Source: ChEMBL document CHEMBL4052759, “Discovery of DS79182026: A potent orally active hepcidin production inhibitor” (Bioorg Med Chem Lett, 2017)
